Reference: publication PMC10510108, “Studies Pertaining to the Emerging Cannabinoid Hexahydrocannabinol (HHC)” (ACS Chemical Biology, 2023)
“Also recorded” adds a separate entry of the source. Like-named read-outs stand apart in the source and are kept apart here.

What was measured:
[1] = target: T1, human CB2 cannabinoid receptor (Homo sapiens, UniProt P34972); test: biochemical; format: binding; conditions: for nH (Hill coefficient): competition curve fit; for Top (% inhibition of control specific binding): four parameter curve fit
T1 construct: host or cells: CHO cells

human CB1 receptor = target: T2, human CB1 receptor (Homo sapiens, UniProt P21554); test: cell-based; conditions: for EC50: cAMP HTRF, transfected CHO cells, two replicate experiments, error = standard deviation
T2 construct: host or cells: CHO cells

[2] = target: T3, human CB1 cannabinoid receptor (Homo sapiens, UniProt P21554); test: biochemical; format: binding; conditions: for nH (Hill coefficient) / Top (% inhibition of control specific binding): SI; for nH (Hill coefficient): competition curve fit; for Top (% inhibition of control specific binding): four parameter curve fit
T3 construct: host or cells: Chem-1 cells

human CB2 receptor = target: T4, human CB2 receptor (Homo sapiens, UniProt P34972); test: cell-based; conditions: for EC50: cAMP HTRF, transfected CHO cells, two replicate experiments, error = standard deviation
T4 construct: host or cells: CHO cells

[3] = [3H]WIN 55212-2 displacement, transfected CHO cell lysate, two replicate experiments, error = standard deviation, read-out: Ki (CB2)

T2 sequence (P21554 whole entry): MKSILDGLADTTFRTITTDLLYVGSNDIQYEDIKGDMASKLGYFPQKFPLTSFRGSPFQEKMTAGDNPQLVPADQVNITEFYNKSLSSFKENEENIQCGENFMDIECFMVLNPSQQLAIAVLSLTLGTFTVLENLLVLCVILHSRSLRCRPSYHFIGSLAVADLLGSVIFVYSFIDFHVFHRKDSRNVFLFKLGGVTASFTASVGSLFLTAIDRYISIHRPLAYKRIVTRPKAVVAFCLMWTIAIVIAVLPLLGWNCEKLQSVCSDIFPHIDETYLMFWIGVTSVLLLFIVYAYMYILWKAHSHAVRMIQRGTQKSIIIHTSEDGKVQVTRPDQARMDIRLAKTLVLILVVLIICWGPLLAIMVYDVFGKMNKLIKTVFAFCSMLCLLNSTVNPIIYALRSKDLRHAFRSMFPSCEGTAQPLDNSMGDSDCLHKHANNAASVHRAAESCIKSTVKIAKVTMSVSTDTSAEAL
T3 sequence (P21554 whole entry): as above
T1 sequence (P34972 whole entry): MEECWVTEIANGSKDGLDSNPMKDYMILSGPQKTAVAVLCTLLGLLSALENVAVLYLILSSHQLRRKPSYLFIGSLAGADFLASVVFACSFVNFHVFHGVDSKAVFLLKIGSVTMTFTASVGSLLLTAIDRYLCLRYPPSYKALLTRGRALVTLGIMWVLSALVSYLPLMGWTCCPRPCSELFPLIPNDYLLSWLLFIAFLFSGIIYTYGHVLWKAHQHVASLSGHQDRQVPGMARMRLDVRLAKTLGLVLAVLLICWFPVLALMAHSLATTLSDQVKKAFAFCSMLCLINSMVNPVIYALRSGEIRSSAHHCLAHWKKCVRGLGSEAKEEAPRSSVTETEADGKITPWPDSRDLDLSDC
T4 sequence (P34972 whole entry): as above

| Structure (SMILES) | % inhibition of control specific binding ([1]; Log[M] –5.48, 1st replicate) [%] | % inhibition of control specific binding ([1]; Log[M] –5.48, 2nd replicate) [%] | % inhibition of control specific binding ([1]; Log[M] –6.43, 1st replicate) [%] | % inhibition of control specific binding ([1]; Log[M] –6.43, 2nd replicate) [%] | % inhibition of control specific binding ([1]; Log[M] –6.91, 1st replicate) [%] | % inhibition of control specific binding ([1]; Log[M] –6.91, 2nd replicate) [%] | % inhibition of control specific binding ([1]; Log[M] –7.39, 1st replicate) [%] | % inhibition of control specific binding ([1]; Log[M] –7.39, 2nd replicate) [%] | % inhibition of control specific binding ([1]; Log[M] –7.86, 1st replicate) [%] | % inhibition of control specific binding ([1]; Log[M] –7.86, 2nd replicate) [%] | nH (Hill coefficient) ([1]; SI) | Top (% inhibition of control specific binding) ([1]; SI) | Ki [1, 3] [nM] | EC50 (human CB1 receptor) [nM] | agonist character at CB1 (human CB1 receptor; functional assay) | % inhibition of control specific binding ([2]; Log[M] –5.48, 1st replicate) [%] | % inhibition of control specific binding ([2]; Log[M] –5.48, 2nd replicate) [%] | % inhibition of control specific binding ([2]; Log[M] –6.43, 1st replicate) [%] | % inhibition of control specific binding ([2]; Log[M] –6.43, 2nd replicate) [%] | agonist character at CB2 (human CB2 receptor; functional assay) | other results |
| --- | --- | --- | --- | --- | --- | --- | --- | --- | --- | --- | --- | --- | --- | --- | --- | --- | --- | --- | --- | --- | --- |
| CCCCCc1cc(O)c2c(c1)OC(C)(C)[C@@H]1CC[C@@H](C)C[C@@H]21 [4a, (9R)-HHC] | 98.00 | 97.20 | 96.90 | 93.60 | 86.90 | 84.70 | 64.90 | 67.50 | 47.90 | 41.40 | 1.1 | 99 | 13 | 3.4 | partial agonists; also recorded: partial CB1 and CB2 receptor agonist activity | 112.10 | 113.60 | 95.20 | 100.00 | partial agonists; also recorded: partial CB1 and CB2 receptor agonist activity | selectivity for CB2 (radioligand binding) [1]: 1.2 x; selectivity for CB1 (functional assay) (human CB1 receptor): 1.8 x; increase in potency compared to 4b, CB1 (human CB1 receptor; functional assay): 17 fold; Ki [2]: 15 nM; % inhibition of control specific binding ([2]; Log[M] –6.91, 1st replicate): 82.50%; % inhibition of control specific binding ([2]; Log[M] –6.91, 2nd replicate): 83.30%; % inhibition of control specific binding ([2]; Log[M] –7.39, 1st replicate): 50.10%; % inhibition of control specific binding ([2]; Log[M] –7.39, 2nd replicate): 52.90%; % inhibition of control specific binding ([2]; Log[M] –7.86, 1st replicate): 27.40%; % inhibition of control specific binding ([2]; Log[M] –7.86, 2nd replicate): 29.00%; nH (Hill coefficient) [2]: 1.1; Top (% inhibition of control specific binding) [2]: 111; selectivity for CB2 (functional activity) (human CB2 receptor): 0.55 x; EC50 (human CB2 receptor): 6.2 nM; increase in potency compared to 4b, CB2 (human CB2 receptor; functional assay): 9 fold |
| CCCCCc1cc(O)c2c(c1)OC(C)(C)[C@@H]1CC[C@H](C)C[C@@H]21 [4b, (9S)-HHC] | 88.30 | 88.00 | 62.60 | 61.40 | 41.60 | 41.40 | 15.80 | 16.00 | 4.40 | 6.70 | 0.7 | 102 | 105 | 57 | partial agonists; also recorded: partial CB1 and CB2 receptor agonist activity | 88.80 | 95.80 | 35.70 | 35.70 | partial agonists; also recorded: partial CB1 and CB2 receptor agonist activity | Ki ([1]; SI, curve fitted to mean replicate values, Cheng Prusoff, read-out: Ki): 110 nM; selectivity for CB2 (radioligand binding) ([1]; from Ki at CB1 and CB2): 1.7 x; selectivity for CB1 (functional assay) (human CB1 receptor; CB1 versus CB2, from EC50): no significant selectivity; % inhibition of control specific binding ([2]; Log[M] –6.91, 1st replicate): 8.70%; % inhibition of control specific binding ([2]; Log[M] –6.91, 2nd replicate): 5.50%; % inhibition of control specific binding ([2]; Log[M] –7.39, 1st replicate): –4.50%; % inhibition of control specific binding ([2]; Log[M] –7.39, 2nd replicate): 0.20%; % inhibition of control specific binding ([2]; Log[M] –7.86, 1st replicate): –9.00%; % inhibition of control specific binding ([2]; Log[M] –7.86, 2nd replicate): –6.10%; nH (Hill coefficient) [2]: 1.1; Top (% inhibition of control specific binding) [2]: 106; Ki ([2]; [3H]CP 55940 displacement, transfected Chem-1 cell lysate, two replicate experiments, error = standard deviation, read-out: Ki (CB1)): 176 nM; EC50 (human CB2 receptor): 56 nM; selectivity for CB2 (functional activity) (human CB2 receptor; from EC50 at CB1 and CB2): 1.0 x |
| CCCCCc1cc(O)c2c(c1)OC(C)(C)[C@@H]1CCC(C)=C[C@@H]21 [compound 1, Δ^9-trans-tetrahydrocannabinol, reference compound] | 97.00 | 96.20 | 98.10 | 98.20 | 88.60 | 89.90 | 74.30 | 67.60 | 50.30 | 51.20 | 1.0 | 100 |  |  |  |  |  |  |  | partial agonists; also recorded: partial CB1 and CB2 receptor agonist activity |  |
